For one experiment, the target named is T1, 26 S proteasome (Homo sapiens, UniProt P25787+P25789).
T1 construct: purified from erythrocytes; purchased Enzo Life Sciences, Inc. (Farmingdale, N.Y.); host or cells: human erythrocytes
Nature of the experiment: 26 S proteasome challenged with mixture of three substrates (surrogate proteinase assay). The class given is biochemical. The note with it: mixture of ChT-L, T-L and Casp-L substrates, 33.3 μM each; read-out: IC50, 26 S proteasome with substrates for all three peptidases. The method, then: (§1) Human housekeeping 20 S and 26 S and complexes purified from erythrocytes were purchased from Enzo Life Sciences, Inc. (Farmingdale, N.Y.). The 1 mg/ml stock 20 S proteasome was diluted to 0.2 mg/ml working solution in 50 mM Tris/HCl, pH 8 containing 20% glycerol (dilution buffer). For the 26 S proteasome stock, the dilution buffer was supplemented with 2 mM ATP, 1 mM MgCl2, and 1 mM DTT (dithiothreitol). The ChT-L peptidase activity was measured as arbitrary intensity units of fluorescence emitted by 7-amino-4-methylcoumarin (AMC) released from the canonical model peptide substrate succinyl-LeuLeuValTyr-methylcoumarin (SucLLVY-MCA; Bachem Bioscience Inc., Philadelphia, Pa.), used at concentration of 100 μM. Free AMC (Sigma-Aldrich, St. Louis, Mo.) was used as the standard. The Rpt5 C-terminal peptide was synthesized (standard solid-phase peptide chemistry) and purified to at least 98% purity by GenScript (Piscataway, N.J.). The Rpt5 peptide and the peptide substrate were dissolved in dimethylsulfoxide (DMSO) and such stock solutions were stored at −20° C. The total concentration of DMSO in final reaction mixtures never exceeded 3% (vol/vol).
The reaction was carried out in 96-well plates, in 100 μL of reaction mixture, for 1 hour at 37° C. In the case of 20 S proteasome, the reaction mixture consisted of 45 mM Tris/HCl, pH 8, 100 mM KCl with premixed 10 μM Rpt5 peptide and 100 μM Suc-LLVY-MCA, to which 200 ng (nearly […]) of proteasome and desired concentration of tested compounds in 1 μL of DMSO were added. […] The reaction rates were calculated from a linear segment of kinetic curves constructed from measurements in 1-minutes intervals (Fluoroskan Ascent plate reader; Thermo Fisher Scientific Inc., Waltham, Mass.). Reaction rates were calculated using a linear fit executed by Slope Analyzer and Enzyme Kinetics applications launched within Origin Pro 2017 (OriginLab). […]

Experiment [1] concerns the target T2, latent core 20 S proteasome (Homo sapiens, UniProt P25787+P25789).
T2 construct: purified from erythrocytes; purchased Enzo Life Sciences, Inc. (Farmingdale, N.Y.); host or cells: human erythrocytes
Nature of the experiment: ChT-L peptidase activity of latent 20 S core. The class given is biochemical. The note with it: no tRpt5 activation. Here is the method:
as §1, with “The Rpt5 peptide and the peptide substrate were dissolved in dimethylsulfoxide (DMSO) and such stock solutions were stored at −20° C. The total concentration of DMSO in final reaction mixtures never exceeded 3% (vol/vol).” left out
The reaction was carried out in 96-well plates, in 100 μL of reaction mixture, for 1 hour at 37° C. […] The reaction rates were calculated from a linear segment of kinetic curves constructed from measurements in 1-minutes intervals (Fluoroskan Ascent plate reader; Thermo Fisher Scientific Inc., Waltham, Mass.). Reaction rates were calculated using a linear fit executed by Slope Analyzer and Enzyme Kinetics applications launched within Origin Pro 2017 (OriginLab). […]

Consider one compound from patent publication US11345659B2, “Pipecolic esters for inhibition of the proteasome” (THE BOARD OF REGENTS OF THE UNIVERSY OF TEXAS SYSTEM, priority 2018, dated 2022).

For `COc1cc(CCCOC(=O)[C@@H]2CCCCN2C(=O)OCc2ccccc2)cc(OC)c1OC` [Compound 3, 1-benzyl 2-(3-(3,4,5-trimethoxyphenyl)propyl) (S)-piperidine-1,2-dicarboxylate], the values for the IC50 (on 26 S proteasome; in experiment [1]) were 1.2 µM and 2.8 µM, respectively.

What is called IC50 is the point on the concentration scale where inhibition reaches its midpoint.
